The text below walks through data of patent US4766126A, “Process for treatment of nephritis with imidazoquinazolines” (Daiichi Seiyaku Co., Ltd., priority 1986, dated 1988).

Entries after “also recorded” stand apart in the source; their conditions may differ. Counter-ions that a name gives are not always drawn.

Assay [1] has as its system nephritis of acute serum sickness. The settings on record: Clin. Exp. Immunol., Vol. 61, 388-396 (1985); cited from earlier work.
Assay [2] has as its system anti-erythrocyte antibody (auto-antibody) in BDF1 mice. Nature of the assay: Auto-antibody production in mouse induced by GVHR (anti-erythrocyte antibody titre, direct Coombs' test). The format is in vivo. Here is the method:
(§1) When an animal of a first filial generation is implanted with lymphatic cells of its parent's line, a graft-versus-host reaction (hereinafter abbreviated as GVHR) takes place to thereby produce an auto-antibody and induce chronic immune-complex (IC) type nephritis.
(§2) The present invention will now be illustrated by way of experiment examples. In these examples, the drug of interest was dissolved in a 0.5 wt% aqueous solution of carboxymethyl cellulose and administered to test animals in an amount of 0.1 ml per 10 g of the body weight.
(§3) Into BDF1 mice (female; 7-week-old; Nippon Charles River) were intravenously implanted twice spleen cells (6×10^7 cells) and thymus cells (3×10^7 cells) taken from DBA/2 mice (female; 7-week-old; Nippon Charles River) of their parent's line on the 0 day and the 5th day to thereby induce GVHR. DN-9693 was orally given at a dose level of 1 mg/kg in a single dose per day for consecutive 44 days from the 6th day to the 49th day. After 2 weeks from the first implantation of cells, the protein in urine and the anti-erythrocyte antibody titre were determined at one week intervals. The protein in urine and the antibody titre were determined by the modified one step Exton method and the direct Coombs' test method, respectively, in accordance with the following procedures:
Direct Coombs' Test Method
1. Blood samples (50 μl) were obtained from the orbital veniplex of the experimental animals (mice) using a heparinized hematocrit tube.
2. The erythrocytes were washed three times by centrifugation (2,500 r.p.m. for 6 minutes) with a phosphoric acid-buffered physiological saline containing 0.3 wt% bovine serum albumin (0.3% BSA-PBS).
3. The erythrocytes were suspended in 0.3% BSA-PBS to prepare a 1 wt% mouse erythrocyte suspension.
4. The erythrocyte suspension (50 μl) was added to 50 μl of rabbit anti-mouse Ig (MBL) in a two-fold serial dilution placed in a microplate. After shaking, the system was allowed to stand at 37° C. for 1 hour and then at room temperature for 2 hours. The state of agglutination was observed.
5. The maximum dilution of the rabbit anti-mouse Ig that gave a positive agglutination was expressed as 10×2^n, and the value n was taken as an antibody titre.

Assay [3] relates to GVHR-induced nephritis (proteinuria) in BDF1 mice. Nature of the assay: GVHR-induced proteinuria in mouse (urinary protein by modified one step Exton method). Type of assay: in vivo. Here is the method:
as §1, §2, §3
Modified One Step Exton Method
1. Test urine and an albumin standard preparation were placed in a microplate in 10 μl portions.
2. To each hole was added 200 μl of a reagent prepared by dissolving 15 g of sulfosalicylic acid, 20 g of anhydrous sodium sulfate, 5 mg of Bromophenol Blue, and 0.1 g of carboxymethyl cellulose in one liter of water. After stirring to mix, the system was allowed to stand at room temperature.
3. Ten minutes later, the absorbance at 690 nm was measured using the system comprising the reagent alone as a blank.
4. The protein in urine was calculated from a calibration curve.

Assay [4] concerns lupus nephritis (proteinuria) in NZB/WF1 mice. Nature of the assay: Urinary protein in NZB/WF1 mouse (spontaneous lupus nephritis). The format is in vivo. Here is the method: as §2
Ten animals clearly showing proteinuria were chosen from 32-week-old NZB/WF1 mice (female, Jackson) and divided into two groups (5 animals per group) taking the protein level in urine as a guide.
DN-9693 was continuously administered orally one or two times per day at a dose of 1 mg/kg, and influences on changes of urinary protein level were examined.
Thus, the activity to lower protein in urine was recognized also in spontaneously occurring lupus nephritis.

Where [5] appears, read: 1 mg/kg p.o., in words, monohydrate.

Consider `N=C(N)c1ccc2cc(OC(=O)c3ccc(N=C(N)N)cc3)ccc2c1` [FUT-175, dihydrochloride], for which the Protection of nephritis result in assay [1] is given as “protection of nephritis”.
Consider `O=C1CN2Cc3cc(N4CCCCC4)ccc3N=C2N1` [DN-9693, 7-piperidino-1,2,3,5-tetrahydroimidazo[2,1-b]quinazolin-2-onedihydrochloride monohydrate], for which, in assay [2] (1 mg/kg p.o. once daily day 6-49, n=7, titre n: 10 × 2^n, 3rd week from first cell implantation, control 6.3 ± 1.0), the “Anti-Erythrocyte Antibody Titre (Mean ± S.E.), 3rd Week” value is listed as 6.6 ± 0.6. The “Anti-Erythrocyte Antibody Titre (Mean ± S.E.), 4th Week” value in assay [2] (1 mg/kg p.o. once daily day 6-49, n=7, titre n: 10 × 2^n, 4th week from first cell implantation, control 5.4 ± 0.6) was 5.6 ± 0.2. Also, in assay [2] (1 mg/kg p.o. once daily day 6-49, n=7, titre n: 10 × 2^n, 5th week from first cell implantation, control 4.9 ± 1.3), the “Anti-Erythrocyte Antibody Titre (Mean ± S.E.), 5th Week” value came out at 3.6 ± 1.1. Besides, the “Anti-Erythrocyte Antibody Titre (Mean ± S.E.), 6th Week” value in assay [2] (1 mg/kg p.o. once daily day 6-49, n=7, titre n: 10 × 2^n, 6th week from first cell implantation, control 2.9 ± 1.5) is reported as 3.9 ± 1.1. Further, in assay [2] (1 mg/kg p.o. once daily day 6-49, n=7, titre n: 10 × 2^n, 7th week from first cell implantation, control 1.9 ± 1.2), the “Anti-Erythrocyte Antibody Titre (Mean ± S.E.), 7th Week” value turned out to be 3.1 ± 1.0. For the same compound, in assay [2] (setting [5]), the “Influence on production of auto-antibody / immune inhibitory activity” value is “did not influence the production of an auto-antibody; also recorded: possesses no immune inhibitory activity; also recorded: does not decrease the Coombs antibody titre”. Also, in assay [3] (setting [5]), the “Effect on urinary protein (GVHR-induced nephritis)” value is reported as “exhibited an effect to decrease protein in urine; also recorded: urinary protein decreasing effect; also recorded: significantly inhibits an increase of urinary protein”. For the same compound, the “Urinary Protein Score (Mean ± S.E.), 4th Week” value in assay [3] (DN-9693 1 mg/kg p.o. once daily day 6-49, n=7, 4th week from first cell implantation, control 0.2 ± 0.1, score 0 (<=1 mg/ml) to 4 (>=30 mg/ml and ascitic positive)) is on record as 0.3 ± 0.1. Also, the “Urinary Protein Score (Mean ± S.E.), 5th Week” value in assay [3] (DN-9693 1 mg/kg p.o. once daily day 6-49, n=7, 5th week from first cell implantation, control 0.8 ± 0.4, score 0 to 4) was determined as 0.1 ± 0.1. In assay [3] (DN-9693 1 mg/kg p.o. once daily day 6-49, n=7, 6th week from first cell implantation, control 1.8 ± 0.7, score 0 to 4), the “Urinary Protein Score (Mean ± S.E.), 6th Week” value came to 0.4 ± 0.4. For the same compound, in assay [3] (DN-9693 1 mg/kg p.o. once daily day 6-49, n=7, 7th week from first cell implantation, control 2.3 ± 0.6, S.E. 0.4 printed on next line, significantly different from control (P < 0.05), score 0 to 4), the “Urinary Protein Score (Mean ± S.E.), 7th Week” value worked out at 0.6. Also, the “Effect on urinary protein (spontaneous lupus nephritis)” value in assay [4] (1 mg/kg p.o. one or two times per day, in words, monohydrate) is listed as “the increase of urinary protein level is inhibited; also recorded: reduction of protein in the urine”. Further, the “Number of survivors, 0 Week (32)” value in assay [4] (of 5 animals, 0 week, control 5) was 5. Moreover, the “Number of survivors, 1 Week (33)” value in assay [4] (of 5 animals, 1 week, control 5) was determined as 5. The “Number of survivors, 2 Weeks (34)” value in assay [4] (of 5 animals, 2 weeks, control 4) came out at 5. For the same compound, in assay [4] (protein level after/before administration, 1 mg/kg p.o. one or two times per day, 0 week (32-week-old), control 1.0), the “Urinary Protein Index (Mean ± S.E.), 0 Week (32)” value was found to be 1.1. For the same compound, the “Urinary Protein Index (Mean ± S.E.), 1 Week (33)” value in assay [4] (protein level after/before administration, 1 mg/kg p.o. one or two times per day, 1 week (33-week-old), control 7.0 ± 5.9) worked out at 1.2 ± 0.2. Besides, the “Urinary Protein Index (Mean ± S.E.), 2 Weeks (34)” value in assay [4] (protein level after/before administration, 1 mg/kg p.o. one or two times per day, 2 weeks (34-week-old), control 4.8 ± 2.9) was 1.6 ± 0.6.
In the case of `OCCN(CCO)c1nc(N2CCCCC2)c2nc(N(CCO)CCO)nc(N3CCCCC3)c2n1` [dipyridamole, 2,6-bis(diethanolamino)-4,8-dipiperidinopyrimido[5,4,-d]pyrimidine], the Protection of nephritis entry in assay [1] was “protection of nephritis”.
